Target: T1, AR (Rattus norvegicus, UniProt P15207)
T1 construct: expressed in transfected cells; host or cells: COS cells
T1 sequence (P15207 1-902): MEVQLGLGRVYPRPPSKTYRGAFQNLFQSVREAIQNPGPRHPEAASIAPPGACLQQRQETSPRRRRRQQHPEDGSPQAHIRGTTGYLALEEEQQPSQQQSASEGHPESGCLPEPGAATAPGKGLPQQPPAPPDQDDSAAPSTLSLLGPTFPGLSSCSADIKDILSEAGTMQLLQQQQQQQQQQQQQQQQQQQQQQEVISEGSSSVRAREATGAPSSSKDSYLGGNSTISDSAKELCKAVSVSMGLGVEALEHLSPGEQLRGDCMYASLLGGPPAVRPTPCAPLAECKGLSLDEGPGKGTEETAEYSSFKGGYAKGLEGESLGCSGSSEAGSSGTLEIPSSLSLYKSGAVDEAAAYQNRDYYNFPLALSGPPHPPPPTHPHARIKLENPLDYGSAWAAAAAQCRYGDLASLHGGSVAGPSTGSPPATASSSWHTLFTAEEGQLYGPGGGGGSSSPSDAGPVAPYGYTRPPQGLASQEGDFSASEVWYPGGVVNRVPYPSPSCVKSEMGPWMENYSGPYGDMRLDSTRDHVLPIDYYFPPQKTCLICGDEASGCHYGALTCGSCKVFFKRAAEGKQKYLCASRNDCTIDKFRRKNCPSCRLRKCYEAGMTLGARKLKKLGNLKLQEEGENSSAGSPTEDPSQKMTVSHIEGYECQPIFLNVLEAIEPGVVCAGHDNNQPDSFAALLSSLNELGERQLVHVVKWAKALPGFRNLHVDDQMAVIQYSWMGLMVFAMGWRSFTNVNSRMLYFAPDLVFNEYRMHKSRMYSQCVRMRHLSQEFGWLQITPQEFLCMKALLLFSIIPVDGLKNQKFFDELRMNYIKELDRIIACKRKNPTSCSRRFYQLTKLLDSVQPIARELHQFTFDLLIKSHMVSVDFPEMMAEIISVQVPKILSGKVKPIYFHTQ
Experiment: AR transactivation, ARE-LUC in COS cells
Assay type: cell-based
Experimental: FIG. 3: Effect of the indicated compounds on AR transactivation. COS cells plated in DME without phenol red+10% csFBS at 90,000 cells per well of a 24 well plate were transfected with 0.25 μg ARE-LUC, 0.02 μg CMV-LUC (Renilla) and 12.5 ng of AR by lipofectamine. Twenty four hours after transfection, the cells were treated as indicated in the figure, harvested 48 hrs after transfection and were assayed for firefly and renilla luciferase.
Also 25 ng of ER-α (FIGS. 1, 5, and 9), 50 ng of ER-β (FIGS. 2, 6 and 10) or 12.5 ng of AR (FIG. 3) were introduced by lipofectamine. All the receptors were cloned from rat tissue into the PCR3.1 vector backbone. […] Cells were harvested 48 hrs after transfection, and assayed for firefly and Renilla luciferase activity.

## O=C(c1ccccc1)N(c1ccc(O)cc1)c1ccc(OCCN2CCCCC2)cc1 [Compound 4a, N-(4-hydroxyphenyl)-N-[4-(2-piperidin-1-ylethoxy)-phenyl]-benzamide]
  AR LUC expression, compound alone: no effect on LUC expression
With DHT
  inhibition of DHT-induced AR activation: nor did it inhibit DHT-induced AR activation

Source: patent publication US8158828B2, “Nuclear receptor binding agents” (priority 2005, dated 2012)
